Among the test systems are HOP-62; LOX IMVI; U-251; SR; SN12C; TK-10; IGROV-1; RPMI-8226; NCI-H460; 786-0; UO-31; BT-549; MOLT-4; LXFL 529; SW-620; KM12; M14; T47D; MDA-MB-435; PC-3.
Common to all, as to test: growth of human tumour cells (NCI), 48 h

Molecules are shown by their SMILES.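 Test compounds were applied to cells in 96-well plates for 48 hours at 5 doses. GI50 = concentration required for 50% inhibition of growth.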 The source made the active and inactive calls. Rule as the data show it: active = GI50 up to about 1.1 µM and inactive = higher. Where only a bound is given, the exact number is not on record here.

As for `CN(C)CCCn1c2c3ccccc3ccc2c2oc(=O)c3ccccc3c21`, the GI50 in the assay on HOP-62 was 5700 nM (inactive); with LOX IMVI, 4630 nM (inactive); in the assay with U-251, 3260 nM (inactive); with SR, 914 nM (active); in the assay on SN12C, 5620 nM (inactive); in the assay on TK-10, 14200 nM (inactive). The GI50 is 7930 nM (inactive) in the assay with IGROV-1; 4630 nM (inactive) in the assay on RPMI-8226; 2050 nM (inactive) in the assay on NCI-H460; 2640 nM (inactive) with 786-0; 3440 nM (inactive) in the assay on UO-31; > 40600 nM (inactive) in the assay on BT-549. In addition, the GI50 in the assay with MOLT-4 is 986 nM (active); in the assay on LXFL 529 it was 3560 nM (inactive); in the assay on SW-620, 2000 nM (inactive); in the assay on KM12, 3830 nM (inactive); in the assay on M14, 6030 nM (inactive); in the assay with T47D, 12100 nM (inactive).
In the case of `O=C1c2cccc(NCCNCCO)c2C(=O)c2cccc(NCCNCCO)c21`, the GI50 in the assay with HOP-62 was 1290 nM (inactive); in the assay with LOX IMVI, 272 nM (active); in the assay with U-251 it was 792 nM (active); in the assay on SR, 519 nM (active); in the assay with SN12C, 782 nM (active); in the assay on TK-10, 3730 nM (inactive). The GI50 in the assay on IGROV-1 is 1560 nM (inactive); with RPMI-8226 it was 1200 nM (inactive); in the assay with MDA-MB-435, 1250 nM (inactive); in the assay on NCI-H460, 1550 nM (inactive); in the assay on 786-0, 665 nM (active); in the assay on UO-31 it was 4720 nM (inactive). The GI50 with BT-549 is 2960 nM (inactive); with MOLT-4, 443 nM (active); in the assay with LXFL 529, 643 nM (active); with SW-620, 714 nM (active); in the assay with KM12, 792 nM (active); with M14, 1810 nM (inactive). Besides, the GI50 was 1690 nM (inactive) in the assay with T47D and 733 nM (active) with PC-3.
